Test results published in patent US20120202801A1, “METHODS FOR TREATING BREAST CANCER” (priority 2009, published 2012).
Like-named read-outs stand apart in the source and are kept apart here. Marks after values point to notes of the source that are not given here.

Legend:
HT1080 xenografts [1] = assay: BrdU labeling of tumor cells from HT1080 xenografts in vivo; design: species or system mice; settings: 1, 2, or 3 days of treatment
Method: (§1) Experimental Design. HT1080 cells (5×10^6 cells/mouse) were implanted subcutaneously in male athymic nude mice.
The mice were sacrificed 3 hours later, and the tumors collected. A single cell suspension was prepared from the tumor cells. The cells were permeabilized and an antibody to BrdU was used to stain cells that had entered S phase during the labeling period. The proportion of cells actively synthesizing DNA was determined by cell sorting.

HT1080 xenografts [2] = assay: Time course of tumor size and plasma human VEGF in HT1080 xenografts; format: in vivo, mice; settings: by Day 1
Method: as §1
Tumor size was measured by calipers immediately pre-treatment and at the time of sacrifice on Day 1, 2, or 3 (5 mice per group per day). At sacrifice, the plasma was collected for assay of pathologic human VEGF concentration using an ELISA that recognizes human VEGF121 and VEGF165 (as described in Section 9.1.1.1).

HT1080 xenografts [3] = assay: HT1080 xenograft tumor growth, Compound 1205, 1330 and Compound #10 (studies 21-24b); format: in vivo, mice
Description: Experimental Design. HT1080 cells (5×10^6 cells/mouse) were implanted subcutaneously in male athymic nude mice. […] For comparison, Compound #10 was included in this study.

[4] = tested on: human VEGF121 and VEGF165; assay: Intra-tumor and pathologic plasma human VEGF in HT1080 xenografts, Compound 1205 (studies #21, #23); format: in vivo, mice
Description: Experimental Design. HT1080 cells (5×10^6 cells/mice) were implanted subcutaneously into male athymic nude mice. Treatment with vehicle alone or Compound 1205 was initiated when the median tumor volume was approximately 311±88 mm^3. Table 7 and Table 9 (study design #21 and #23) provide the study design for assessing tumor and plasma pathologic VEGF concentrations—each group in each study included eight (8) mice. When the tumors in vehicle-treated mice had reached the target size of ˜1200 mm^3 for study #21 and ˜1500 mm^3 for study #23, all mice in the study were sacrificed, and excised tumors were homogenized in buffer containing protease inhibitors. Both intra-tumor and pathologic plasma human VEGF levels were measured using an ELISA that recognizes human VEGF121 and VEGF165. Intra-tumor VEGF levels were normalized to the total tumor protein concentration and pathologic plasma VEGF levels were expressed in pg/mL. Because smaller tumors produce less VEGF per mg of tumor protein, intra-tumor VEGF levels were normalized to tumor size.

[5] = rat, in vivo
[6] = Dose response assessment in nude mice bearing HT1080 xenografts (tumor and plasma human VEGF, tumor size, trough plasma concentration); format: in vivo; settings: male, athymic nude, mouse, plasma, oral; 1 mg/kg BID, 16 hours after the first day of dosing (n=3)
Method: Experimental Study Design. HT1080 cells (5×10^6 cells/mouse) were implanted subcutaneously in male athymic nude mice.
Tumor size was measured using calipers at periodic intervals during the study (data shown in Section 9.2.2). […] Mice were sacrificed, and excised tumors were homogenized in buffer containing protease inhibitors. Both terminal intratumoral and pathologic plasma human VEGF levels were measured using an ELISA that recognizes human VEGF121 and VEGF165 (as described in Section 9.1.1.1). Intratumoral VEGF levels were normalized to the total tumor protein concentration, while pathologic plasma human VEGF levels were expressed in pg/mL of plasma.
Experimental Design. The experimental design was reported in Section 9.1.2.2.

[7] = Single-dose oral toxicity study in rats; settings: Sprague Dawley, rat, in vivo
Method: The L23 vehicle was used.
Because maximal exposure occurred at 100 mg/kg, this dose is considered the NOAEL for 1 day of dosing.

[8] = tested on: soluble VEGF121 and VEGF165 isoforms; assay: ELISA of soluble VEGF production in multiple human tumor cell lines (EC50); format: cell-based
Method: Study Design. […] In these experiments, cultures were established under normoxic conditions (21% oxygen). […] Cells requiring induction of VEGF production were incubated under hypoxic conditions (1% oxygen). At the completion of treatment, the conditioned media were collected and assayed by ELISA (as described in Section 9.1.1.1) for soluble VEGF121 and VEGF165 isoforms; results were calculated as percentage inhibition relative to vehicle treated controls. EC50 values were calculated from the dose concentration response curves.

[9] = In vitro plasma protein binding of 14C-Compound #10; format: in vitro ADME, mice, rats, dogs, monkeys, and humans; settings: mouse, rat, dog, monkey, human, all species, read-out: plasma protein binding, overall mean

With `COc1cccc2c1C(=O)c1c(O)c3c(c(O)c1C2=O)C[C@@](O)(C(=O)CO)C[C@@H]3O[C@H]1C[C@H](N)[C@H](O)[C@H](C)O1` [doxorubicin] the “BrdU staining of tumor cells (proportion of cells in S phase)” value (HT1080 xenografts [1]) was “decreased the percentage of tumor cells staining with BrdU” and the “pathologic plasma human VEGF levels vs control” value (HT1080 xenografts [2]) was “numerically lower than in control animals”.
With `O=C(Oc1ccc(Cl)cc1)N1CCc2c([nH]c3ccc(Cl)cc23)[C@@H]1c1ccc(OCC[C@H](O)CO)cc1` [Compound 1205] the “Final mean terminal tumor size in treatment group” value (from here on “Final mean terminal tumor size”) (HT1080 xenografts [3]; Study 21: 3 mg/kg QD) was 379 mm^3, the “Final mean terminal tumor size” value (HT1080 xenografts [3]; Study 22: 0.5 mg/kg QD) was 1750 mm^3 and the “Difference vs. vehicle in median number of days to reach 1000 mm^3” value (“Difference vs. vehicle in median number” for short) (HT1080 xenografts [3]; Study 22: 3 mg/kg QD) was 14** Days. For the same compound, the “Final mean terminal tumor size” value (HT1080 xenografts [3]; Study 22: 3 mg/kg QD) was 1840 mm^3, the “Difference vs. vehicle in median number” value (HT1080 xenografts [3]; Study 24a: 10 mg/kg QD) was 14** Days and the “Mean difference in tumor growth rate at the Day that the vehicle-treated tumors taken off study (%)” value (HT1080 xenografts [3]; Study 24a: 10 mg/kg QD, Day 11) was 76%**. The “Difference vs. vehicle in median number” value (HT1080 xenografts [3]; Study 24b: 0.3 mg/kg QD) was 0.7 days, the “Final mean terminal tumor size” value (HT1080 xenografts [3]; Study 24b: 0.3 mg/kg QD) was 1540 mm^3 and the “inhibition of both tumor and pathologic plasma human VEGF levels” value ([4]; 0.5 or 3 mg/kg QD) was “more than 95%”. The “Mean difference in human tumor VEGF (%) at Day 14” value ([4]; Study #21, 3 mg/kg QD, 14 days) was 98%**.
With `COc1ccc([C@H]2c3[nH]c4ccc(Cl)cc4c3CCN2C(=O)Oc2ccc(Cl)cc2)cc1` (racemic) [Compound #10] the “dose of maximal exposures” value ([5]; both, Sprague Dawley, 7 days) was 120 mg/kg/day, the “elevation in mean cholesterol levels” value [5] was 2.5-3 fold and the “elevation in mean glucose levels” value [5] was “about 1.3 fold”. For the same compound, the concentration at 16 h [6] was 280 nM, the “dose of maximal exposure” value [7] was 100 mg/kg and the EC50 ([8]; A-375, Melanoma, A375, hypoxic (1% oxygen), 48 hours, read-out: VEGF Inhibition Approximate EC50) was ~50 nM. For the same compound, the EC50 ([8]; A-431, Epidermoid, A431, 48 hours, read-out: VEGF Inhibition Approximate EC50) was ~10 nM, the EC50 ([8]; ASPC1, ASPC-1 (Pancreas), 48 hours, read-out: VEGF Inhibition EC50) was > 30000 nM and the EC50 ([8]; Breast, MDA-MB-468, hypoxic (1% oxygen), 48 hours, read-out: VEGF Inhibition Approximate EC50) was ~5 nM. The EC50 ([8]; Cervical, HeLa, hypoxic (1% oxygen), 48 hours, read-out: VEGF Inhibition Approximate EC50) was ~2 nM, the EC50 ([8]; Colorectal, HCT-116, 48 hours, read-out: VEGF Inhibition Approximate EC50) was ~10 nM and the EC50 ([8]; Gastric, AGS, 48 hours, read-out: VEGF Inhibition Approximate EC50) was ~0.1 nM. For the same compound, the EC50 ([8]; Gastric, Kato III, hypoxic (1% oxygen), 48 hours, read-out: VEGF Inhibition Approximate EC50) was ~10 nM, the EC50 ([8]; HCT-116, HCT116 (Colorectal), 48 hours, read-out: VEGF Inhibition EC50) was 10 nM and the EC50 ([8]; HEK293 (Renal cell), 48 hours, read-out: VEGF Inhibition EC50) was 10 nM. For the same compound, the EC50 ([8]; HPAF-2 (Pancreas), 48 hours, read-out: VEGF Inhibition EC50) was > 30000 nM, the EC50 ([8]; HT-1080, Fibrosarcoma, HT1080, 48 hours, read-out: VEGF Inhibition Approximate EC50) was ~10 nM and the EC50 ([8]; HT-1080, HT1080 (Fibrosarcoma), 48 hours, read-out: VEGF Inhibition EC50) was 10 nM. For the same compound, the EC50 ([8]; HeLa (Cervical), 48 hours, read-out: VEGF Inhibition EC50) was 2 nM, the EC50 ([8]; Lung, A549, 48 hours, read-out: VEGF Inhibition Approximate EC50) was ~50 nM and the EC50 ([8]; Lung, Calu-6, hypoxic (1% oxygen), 48 hours, read-out: VEGF Inhibition Approximate EC50) was ~7 nM. For the same compound, the EC50 ([8]; Lung, NCI H460, 48 hours, read-out: VEGF Inhibition Approximate EC50) was ~10 nM, the EC50 ([8]; MDA-MB-231, 48 h, read-out: VEGF Inhibition Approximate EC50) was ~5 nM and the EC50 ([8]; NCI H460 (Lung), 48 hours, read-out: VEGF Inhibition EC50) was 10 nM. The EC50 ([8]; Neuroblastoma, SY5Y, hypoxic (1% oxygen), 48 hours, read-out: VEGF Inhibition Approximate EC50) was ~5 nM, the EC50 ([8]; PL45, PL-45 (Pancreas), 48 hours, read-out: VEGF Inhibition EC50) was > 30000 nM and the EC50 ([8]; Pancreas, Capan-1, hypoxic (1% oxygen), 48 hours, read-out: VEGF Inhibition Approximate EC50) was ~5 nM. For the same compound, the EC50 ([8]; Prostate, LNCaP, hypoxic (1% oxygen), 48 hours, read-out: VEGF Inhibition Approximate EC50) was ~15 nM, the EC50 ([8]; Renal cell, HEK293, 48 hours, read-out: VEGF Inhibition Approximate EC50) was ~10 nM and the EC50 ([8]; SK-OV-3, Ovarian, SKOV3, hypoxic (1% oxygen), 48 hours, read-out: VEGF Inhibition Approximate EC50) was ~10 nM. For the same compound, the EC50 ([8]; SNU1, Gastric, SNU-1, 48 hours, read-out: VEGF Inhibition Approximate EC50) was ~0.1 nM, the EC50 ([8]; U-87MG (Glioblastoma), 48 hours, read-out: VEGF Inhibition EC50) was > 30000 nM and the fraction unbound [9] was ≤ 0.005.
